Reference: BindingDB's records for doi:10.1111/j.1432-1033.1991.tb16455.x (Georg-August-University, 1991)
Square brackets hold non-standard residues; d marks the D form. Peptide text beside a SMILES is read from it. ξ: configuration not given here. Ile(3ξ) = CCC(C)[C@H](N)C(=O)O

Biological target: T1, Pituitary adenylate cyclase-activating polypeptide (Rattus norvegicus, UniProt P13589)
T1 sequence (P13589 whole entry): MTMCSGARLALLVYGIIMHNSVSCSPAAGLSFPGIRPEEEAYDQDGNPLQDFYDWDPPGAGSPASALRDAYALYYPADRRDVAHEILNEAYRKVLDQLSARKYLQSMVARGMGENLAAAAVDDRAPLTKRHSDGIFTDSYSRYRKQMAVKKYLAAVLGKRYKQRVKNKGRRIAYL

Ki | Compound
600 nM | Nc1nc2c(ncn2[C@@H]2O[C@H](COP(=O)(O)OP(=O)(O)OP(=O)(O)O)C(O)C2O)c(=O)[nH]1 (stereo partly specified) [+ 1 mM GTP]
1000 nM | CC[C@H](C)[C@H](NC(=O)[C@H](CO)NC(=O)[C@H](CC(N)=O)NC(=O)[C@H](CC(C)C)NC(=O)[C@H](Cc1ccc(O)cc1)NC(=O)[C@H](CCCCN)NC(=O)[C@H](CCCCN)NC(=O)[C@@H](NC(=O)[C@H](C)NC(=O)[C@H](CCSC)NC(=O)[C@H](CCC(N)=O)NC(=O)[C@H](CCCCN)NC(=O)[C@H](CCCN=C(N)N)NC(=O)[C@H](CC(C)C)NC(=O)[C@H](CCCN=C(N)N)NC(=O)[C@@H](NC(=O)[C@H](Cc1ccc(O)cc1)NC(=O)[C@H](CC(N)=O)NC(=O)[C@H](CC(=O)O)NC(=O)[C@@H](NC(=O)[C@H](Cc1ccccc1)NC(=O)[C@@H](NC(=O)[C@H](C)NC(=O)[C@H](CC(=O)O)NC(=O)[C@H](CO)NC(=O)[C@@H](N)Cc1cnc[nH]1)C(C)C)[C@@H](C)O)[C@@H](C)O)C(C)C)C(=O)N[C@@H](CC(C)C)C(=O)N[C@@H](CC(N)=O)C(=O)O [CAS_37221-79-7]
> 10000 nM | Nc1nc2c(ncn2[C@H]2O[C@@H](COP(=O)(O)O)[C@H](O)[C@@H]2O)c(=O)[nH]1 [NSC_6804]
1000 nM | CC[C@H](C)[C@H](NC(=O)CNC(=O)[C@H](CC(=O)O)NC(=O)[C@H](CO)NC(=O)[C@@H](N)Cc1cnc[nH]1)C(=O)N[C@@H](Cc1ccccc1)C(=O)N[C@H](C(=O)N[C@@H](CC(=O)O)C(=O)N[C@@H](CO)C(=O)N[C@@H](Cc1ccc(O)cc1)C(=O)N[C@@H](CO)C(=O)N[C@@H](CCCN=C(N)N)C(=O)N[C@@H](Cc1ccc(O)cc1)C(=O)N[C@@H](CCCN=C(N)N)C(=O)N[C@@H](CCCCN)C(=O)N[C@@H](CCC(N)=O)C(=O)N[C@@H](CCSC)C(=O)N[C@@H](C)C(=O)N[C@H](C(=O)N[C@@H](CCCCN)C(=O)N[C@@H](CCCCN)C(=O)N[C@@H](Cc1ccc(O)cc1)C(=O)N[C@@H](CC(C)C)C(N)=O)C(C)C)[C@@H](C)O [PACAP(1-23)]
4.7 nM | CC[C@H](C)[C@H](NC(=O)CNC(=O)[C@H](CCC(=O)O)NC(=O)[C@H](CO)NC(=O)[C@@H](N)Cc1cnc[nH]1)C(=O)N[C@@H](Cc1ccccc1)C(=O)N[C@H](C(=O)N[C@@H](CC(=O)O)C(=O)N[C@@H](CO)C(=O)N[C@@H](Cc1ccc(O)cc1)C(=O)N[C@@H](CO)C(=O)N[C@@H](CCCNC(=N)N)C(=O)N[C@@H](Cc1ccc(O)cc1)C(=O)N[C@@H](CCCNC(=N)N)C(=O)N[C@@H](CCCCN)C(=O)N[C@@H](CCC(N)=O)C(=O)N[C@@H](CCSC)C(=O)N[C@@H](C)C(=O)N[C@H](C(=O)N[C@@H](CCCCN)C(=O)N[C@@H](CCCCN)C(=O)N[C@@H](Cc1ccc(O)cc1)C(=O)N[C@@H](CC(C)C)C(=O)N[C@@H](C)C(=O)N[C@@H](C)C(=O)N[C@H](C(=O)N[C@@H](CC(C)C)C(N)=O)C(C)C)C(C)C)[C@@H](C)O [PACAP(1-27)]
6.4 nM | CCC(C)[C@H](NC(=O)CNC(=O)[C@H](CC(=O)O)NC(=O)[C@H](CO)NC(=O)[C@@H](N)Cc1cnc[nH]1)C(=O)N[C@@H](Cc1ccccc1)C(=O)N[C@H](C(=O)N[C@@H](CC(=O)O)C(=O)N[C@@H](CO)C(=O)N[C@@H](Cc1ccc(O)cc1)C(=O)N[C@@H](CO)C(=O)N[C@@H](CCCN=C(N)N)C(=O)N[C@@H](Cc1ccc(O)cc1)C(=O)N[C@@H](CCCN=C(N)N)C(=O)N[C@@H](CCCCN)C(=O)N[C@@H](CCC(N)=O)C(=O)N[C@@H](CCSC)C(=O)N[C@@H](C)C(=O)N[C@H](C(=O)N[C@@H](CCCCN)C(=O)N[C@@H](CCCCN)C(=O)N[C@@H](Cc1ccc(O)cc1)C(=O)N[C@@H](CC(C)C)C(=O)N[C@@H](C)C(=O)N[C@@H](C)C(=O)N[C@H](C(=O)N[C@@H](CC(C)C)C(=O)NCC(=O)N[C@@H](CCCCN)C(=O)N[C@@H](CCCN=C(N)N)C(=O)N[C@@H](Cc1ccc(O)cc1)C(=O)N[C@@H](CCCCN)C(=O)N[C@@H](CCC(N)=O)C(=O)N[C@@H](CS)C(N)=O)C(C)C)C(C)C)[C@@H](C)O (stereo partly specified) [PACAP(1-33,Cys34)]
1000 nM | CCC(C)[C@H](NC(=O)CNC(=O)[C@@H](N)CC(=O)O)C(=O)N[C@@H](Cc1ccccc1)C(=O)N[C@H](C(=O)N[C@@H](CC(=O)O)C(=O)N[C@@H](CO)C(=O)N[C@@H](Cc1ccc(O)cc1)C(=O)N[C@@H](CO)C(=O)N[C@@H](CCCN=C(N)N)C(=O)N[C@@H](Cc1ccc(O)cc1)C(=O)N[C@@H](CCCN=C(N)N)C(=O)N[C@@H](CCCCN)C(=O)N[C@@H](CCC(N)=O)C(=O)N[C@@H](CCSC)C(=O)N[C@@H](C)C(=O)N[C@H](C(=O)N[C@@H](CCCCN)C(=O)N[C@@H](CCCCN)C(=O)N[C@@H](Cc1ccc(O)cc1)C(=O)N[C@@H](CC(C)C)C(=O)N[C@@H](C)C(=O)N[C@@H](C)C(N)=O)C(C)C)[C@@H](C)O (stereo partly specified) [PACAP(3-25)] (H-DG[Ile(3ξ)]FTDSYSRYRKQMAVKKYLAA-NH2)
1.9 nM | CC[C@H](C)[C@H](NC(=O)CNC(=O)[C@H](CC(=O)O)NC(=O)[C@H](CO)NC(=O)[C@@H](N)Cc1cnc[nH]1)C(=O)N[C@@H](Cc1ccccc1)C(=O)N[C@H](C(=O)N[C@@H](CC(=O)O)C(=O)N[C@@H](CO)C(=O)N[C@@H](Cc1ccc(O)cc1)C(=O)N[C@@H](CO)C(=O)N[C@@H](CCCNC(=N)N)C(=O)N[C@@H](Cc1ccc(O)cc1)C(=O)N[C@@H](CCCNC(=N)N)C(=O)N[C@@H](CCCCN)C(=O)N[C@@H](CCC(N)=O)C(=O)N[C@@H](CCSC)C(=O)N[C@@H](C)C(=O)N[C@H](C(=O)N[C@@H](CCCCN)C(=O)N[C@@H](CCCCN)C(=O)N[C@@H](Cc1ccc(O)cc1)C(=O)N[C@@H](CC(C)C)C(=O)N[C@@H](C)C(=O)N[C@@H](C)C(=O)N[C@H](C(=O)N[C@@H](CC(C)C)C(=O)NCC(=O)N[C@@H](CCCCN)C(=O)N[C@@H](CCCNC(=N)N)C(=O)N[C@@H](Cc1ccc(O)cc1)C(=O)N[C@@H](CCCCN)C(=O)N[C@@H](CCC(N)=O)C(=O)N[C@@H](CCCNC(=N)N)C(=O)N[C@H](C(=O)N[C@@H](CCCCN)C(=O)N[C@@H](CC(N)=O)C(=O)N[C@@H](CCCCN)C(N)=O)C(C)C)C(C)C)C(C)C)[C@@H](C)O [PACAP]
3.1 nM | H-HSDGIFTDSYSRYRKQMAVKKYLNSILN-NH2 [PACAP(1-23),VIP(24-28)]

Compound | Ki
Nc1nc2c(ncn2C2OC(COP(=O)(O)OP(=O)(O)OP(=O)(O)S)C(O)C2O)c(=O)[nH]1 (stereo unspecified) [CAS_444121] | 40 nM
Nc1nc2c(ncn2C2OC(COP(O)(=S)OP(=O)(O)O)C(O)C2O)c(=O)[nH]1 (stereo unspecified) [NSC_196042] | 340 nM
